This passage reports TGI and GI50 results from PubChem BioAssay (NCI).

Holding throughout (assay): NCI anticancer screen, dose series, 48 h
The test system of assay [1] is SK-MEL-28 melanoma.
For assay [2], the system named is OVCAR-3 ovarian.
Assay [3] deals with MALME-3M melanoma.
Assay [4] has as its system 786-0 renal.
Assay [5] relates to NCI-H23 lung.
Assay [6] has as its system MDA-N.
Assay [7] relates to HCT-116 colon.
The subject of assay [8] is CCRF-CEM leukemia.
Assay [9] concerns HCC-2998 colon.

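Cells were grown in 96-well plates and exposed to each compound for 48 hours at five concentrations; endpoints were interpolated linearly between bracketing concentrations, or set to the highest concentration if not reached. At the GI50, growth is halved. TGI is the concentration that stops growth completely.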 Bounds are passed on as bounds.

In the case of `Clc1cccc(/C=c2\nc(-c3ccccc3)n3c2nc2ccccc23)c1`, the TGI in assay [1], in assay [2], in assay [3], in [4], in [5] and in assay [6] was > 100 µM each time. The TGI in assay [7] and in assay [8] was > 100 µM throughout.
As to `Cc1c2ccccc2cc2cccc[n+]12`, the TGI is 70.5 µM in assay [1]; > 100 µM in [2]; 27.9 µM in [3]; > 100 µM in assay [4]; 65.5 µM in assay [5]; > 100 µM in [9]. Besides, the TGI in assay [6], in [7] and in assay [8] was > 100 µM in each case.
Regarding `CCCCSCCC(N)P(=O)(O)O` (configuration not stated), the TGI in [1], in [2], in assay [5], in [9], in assay [6] and in assay [7] was > 100 µM each time. For the same compound, in assay [8], the TGI is > 100 µM.
Turning to `Nc1ccc(Cc2ccc(N)c(C(=O)O)c2)cc1C(=O)O`, the TGI in [1], in assay [2], in [3], in assay [4], in assay [5] and in assay [9] was > 100 µM each time. Moreover, the TGI in assay [6], in assay [7] and in assay [8] was > 100 µM throughout.
As for `COc1ccc(-n2nc(C(=O)c3ccccc3)c3nn4c(=O)cc(-c5ccccc5)nc4nc32)cc1`, the GI50 in [1] was 38.3 µM; in assay [2], 30.7 µM; in [3], 34.5 µM; in [5], 67.2 µM; in [9] it was 47.3 µM; in assay [7], > 100 µM. Also, in [8], the GI50 was 28.9 µM. Further, the TGI in assay [1] is > 100 µM; in assay [2], > 100 µM; in [3], > 100 µM; in assay [5], > 100 µM; in assay [9], 76.7 µM; in [7], > 100 µM. Besides, the TGI in [8] was > 100 µM.
As for `Cc1ccc(S(=O)(=O)Nc2cc(=O)[nH]c3c2CCC3)cc1`, the TGI in assay [1], in [2], in assay [3], in assay [4], in assay [5] and in assay [9] was > 100 µM throughout. For the same compound, the TGI in assay [6], in [7] and in [8] was > 100 µM in each case.
For `NC(N)=N/N=C/c1c(-c2cccs2)nc2n1CCS2`, the figures for the GI50 in [2] and in assay [8] were 15.5 µM and 17.2 µM, respectively. The TGI in assay [2] worked out at 32.7 µM; in [8], 34 µM.
`CN(C)c1ccc(/C=C2\C[C@H]3[C@@H]4CC=C5C[C@@H](O)CC[C@]5(C)[C@H]4CC[C@]3(C)[C@H]2O)cc1`: the TGI in [1] was determined as 44.9 µM; in assay [2] it was 59.8 µM; in assay [3], 38.4 µM; in assay [4], 42 µM; in assay [5], 35.6 µM; in assay [6] it was 56.9 µM. In assay [7], this compound yielded a TGI of 28.1 µM.
On to `COc1ccc2c3c([nH]c2c1)[C@H](C=C(C)C)N1C(=O)[C@@H]2CCCN2C(=O)[C@@H]1C3`, for which the TGI in assay [1] was 55.5 µM; in [2], > 100 µM; in [3] it was > 100 µM; in assay [4] it was > 100 µM; in [5] it was > 100 µM; in [9], > 100 µM. Also, the TGI in assay [7] and in assay [8] was > 100 µM in each case.
As for `C#C[C@]1(O)[C@@H](CO)O[C@@H](n2ccc(=O)[nH]c2=O)[C@@H]1O`, the TGI in assay [1] is 31.3 µM; in assay [3], 7.62 µM; in assay [5], 7.37 µM; in assay [6], 1.71 µM; in assay [8], > 100 µM.
For the compound `O=S(C(c1ccccc1)=P(c1ccccc1)(c1ccccc1)c1ccccc1)c1ccc(Cl)cc1` (configuration not stated), the TGI in assay [1] was > 100 µM; in assay [2] it was > 100 µM; in assay [4] it was > 100 µM; in assay [5] it was > 100 µM; in assay [9], > 100 µM; in assay [6] it was 78.6 µM. Also, the figures for the TGI in assay [7] and in assay [8] were 79.5 µM and > 100 µM, respectively.
Take `CS(=O)(=O)Nc1ccc(NCc2cnc3ccc4[nH]cccc4c23)cc1`: the TGI in assay [1] is 66.4 µM; in [2], 92.9 µM; in assay [3], 46.6 µM; in [4] it was > 100 µM; in assay [5] it was 59.6 µM; in assay [6], 37.5 µM. Also, the TGI in assay [7] was 51.8 µM; in assay [8] it was 58.5 µM.
`CCC1=C(CC2NCCc3cc(OC)c(OC)cc32)CC2c3ccccc3CCN2C1` (configuration not stated): the TGI was 29 µM in [1]; > 100 µM in assay [2]; 27.7 µM in assay [3]; 35.6 µM in assay [4]; 27 µM in assay [6]; > 100 µM in [7]. For the same compound, in assay [8], the TGI amounted to 33.6 µM.
For `CS(=O)(=O)Nc1cccc(-c2ccc3ncnc(Nc4cncc(Cl)c4)c3c2)c1`, the GI50 was 2.34 µM in assay [3], 2.51 µM in [5], 2.4 µM in assay [9] and 3.09 µM in assay [8]. Moreover, the TGI is 8.38 µM in assay [3], 16.9 µM in [5], 5.27 µM in assay [9] and > 100 µM in assay [8].
`Nc1csc(-c2scc3c2OCCO3)c1N`: the TGI in [1] is 49.5 µM; in [2], 36.1 µM; in assay [3] it was 36 µM; in assay [4], 33.3 µM; in [5], 35.6 µM; in assay [9] it was 49.8 µM. Moreover, the TGI in assay [6] came out at 38.8 µM; in [7], 46.4 µM.
Turning to `Fc1c(F)c(F)c(CSc2nc3ccccc3[nH]2)c(F)c1F`, the TGI in assay [1], in [2], in assay [3], in assay [5], in assay [9] and in assay [6] was > 100 µM each time. Further, the TGI in assay [7] and in assay [8] was > 100 µM in each case.
